The record followed here is ChEMBL document CHEMBL4837215, “Application of cation-π interactions in enzyme-substrate binding: Design, synthesis, biological evaluation, and molecular dynamics insights of novel hydrophilic substrates for NQO1” (Eur J Med Chem, 2021).

In brackets after ≈: the same amount, converted by molar mass. Activity calls are given as the source filed them. No cut-off for these calls is given here.

A word on the IC50: it is the concentration at which inhibition is half-maximal. By logD is commonly meant lipophilicity at a set pH, counting ionised and neutral species.

Data set [1] addresses NAD(P)H dehydrogenase [quinone] 1 (Homo sapiens) (UniProt P15559). Description: Substrate activity at recombinant human NQO1 assessed as enzymatic reduction rate at 10 uM.
For data set [2], the system named is A549. Description: Cytotoxicity against human A549 cells overexpressing NQO1 assessed as reduction in cell viability incubated for 72 hrs by MTT assay. In kind it is functional, cell-based. The following applies: A549, 72 h.
The next data set relates to L02. Description: Cytotoxicity against NQO1-deficient human L02 cells assessed as reduction in cell viability incubated for 72 hrs by MTT assay. In kind it is cell-based. The following applies: L02, 72 h. (Tetrazolium dyes change colour on reduction, which living cells bring about.)
Data set [3] can be described thus: Selectivity index, ratio of IC50 for NQO1-deficient human L02 cells to IC50 for human A549 cells overexpressing NQO1 incubated for 72 hrs by MTT assay.
For another data set, the system named is A549/TR. Briefly: Cytotoxicity against human A549/Taxol cells overexpressing NQO1 assessed as reduction in cell viability incubated for 72 hrs by MTT assay. Format: functional, cell-based.
Data set [4] relates to A549. Briefly: Cytotoxicity against human DPP-resistant A549 cells overexpressing NQO1 assessed as reduction in cell viability incubated for 72 hrs by MTT assay. Format: functional, cell-based. The following applies: A549, 72 h.
The test system of another data set is NCI-H596. Briefly: Cytotoxicity against NQO1-deficient human NCI-H596 cells assessed as reduction in cell viability incubated for 72 hrs by MTT assay. Format: functional, cell-based. The following applies: NCI-H596, 72 h.
Data set [5] concerns A549. Description: Cytotoxicity against NQO1-deficient human A549 cells assessed as reduction in cell viability pretreated with DIC followed by compound addition and incubated for 72 hrs by MTT assay. Format: functional, cell-based.
Data set [6] is described as follows: Selectivity index, ratio of IC50 for NQO1-deficient human NCI-H596 cells to IC50 for human A549 cells overexpressing NQO1 incubated for 72 hrs by MTT assay.
The nature of data set [7]: Selectivity index, ratio of IC50 for human A549 cells overexpressing NQO1 to IC50 for NQO1-deficient human A549 cells assessed as reduction in cell viability pretreated with DIC followed by compound addition and measured after 72 hrs by MTT assay.
The nature of data set [8]: Intrinsic solubility of the compound after 8 hrs by potentiometric titration method. In kind it is physicochemical. The conditions noted are these: read-out: Intrinsic_solubility.
Data set [9] in a line: Solubility of the compound in pH 3 after 8 hrs by potentiometric titration method. In kind it is physicochemical. The conditions noted are these: buffer.
Data set [10] can be described thus: Lipophilicity, logD of the compound at pH 7.4 by potentiometric titration method. In kind it is physicochemical. The following applies: buffer.
Data set [11] concerns A549. Briefly: Induction of apoptosis in human A549 cells assessed as condensed nuclei at 1 to 10 uM measured after 24 hrs by DAPI based confocal laser scanning microscopic method. The following applies: dose 1-10 µM. Format: functional, cell-based.
Data set [12] concerns A549. Description: Induction of ROS generation in human A549 cells at 1 to 10 uM incubated for 3 hrs by DCFH-DA staining based confocal laser scanning microscopic method. In kind it is functional, cell-based. The following applies: dose 1-10 µM.
Data set [13] has as its system A549. Briefly: Induction of ROS generation in human A549 cells at 10 uM pretreated with DIC or NAC for 1 hr followed by compound addition and measured after 3 hrs by DCFH-DA staining based confocal laser scanning microscopic method. Format: functional, cell-based.
In data set [14] the test system is A549. Briefly: Induction of superoxide anion generation in human A549 cells at 1 to 10 uM incubated for 3 hrs by […] staining based confocal laser scanning microscopic method. In kind it is functional, cell-based. The following applies: dose 1-10 µM.
Data set [15] relates to A549. Briefly: Induction of superoxide anion generation in human A549 cells at 10 uM pretreated with DIC or NAC for 1 hr followed by compound addition and measured after 3 hrs by […] staining based confocal laser scanning microscopic method. Format: functional, cell-based.
Data set [16] has as its target NAD(P)H dehydrogenase [quinone] 1 (Homo sapiens) (UniProt P15559). Description: Induction of recombinant human NQO1-mediated ROS generation assessed as rate of reduction of cytochrome C at 25 uM by spectrophotometric assay. The conditions noted are these: filed as activator.
For data set [17] the target is unchanged. Briefly: Induction of recombinant human NQO1-mediated ROS generation assessed as rate of reduction of cytochrome C at 25 uM in presence of DIC by spectrophotometric assay.

NAD(P)H dehydrogenase [quinone] 1 (Homo sapiens), sequence (P15559 whole entry): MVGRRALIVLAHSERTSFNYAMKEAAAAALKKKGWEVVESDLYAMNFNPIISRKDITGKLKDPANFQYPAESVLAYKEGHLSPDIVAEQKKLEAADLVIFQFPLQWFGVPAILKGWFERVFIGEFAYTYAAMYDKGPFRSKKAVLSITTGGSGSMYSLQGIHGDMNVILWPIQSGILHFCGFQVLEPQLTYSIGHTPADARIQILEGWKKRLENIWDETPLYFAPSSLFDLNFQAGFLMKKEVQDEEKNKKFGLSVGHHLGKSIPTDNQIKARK

Regarding `Cc1cc2c(cc1C)-c1oc(CN(C)C)c(C)c1C(=O)C2=O`, in [1], the Activity stood at 704 µmol/min. Further, the IC50 amounted to 15 µM with A549 [2] and 46.9 µM in the data set with L02. Moreover, the “Ratio IC50” value in data set [3] is listed as 3.12.
For `Cc1cc2c(cc1C)-c1oc(CN3CCN4CCCC4C3)c(C)c1C(=O)C2=O` (stereo not given), the Activity in data set [1] is 1070 µmol/min. Also, the results for the concentration for half-maximal inhibition (IC50) in the data set on A549 [2] and in the data set with L02 were 4.3 µM and 32.9 µM, respectively. Further, the “Ratio IC50” value in data set [3] is reported as 7.66.
In the case of `CC1(C)CCC2=C(O1)c1ccccc1C(=O)C2=O` [LAPACHONE], the IC50 is 9.6 µM with L02; 11 µM with A549/TR; 16 µM in the data set with A549 [4]; 27 µM with NCI-H596; 29 µM in the data set with A549 [5]. Besides, the “Ratio IC50” value worked out at 1.68 in [3], 4.7 in data set [6] and 5.1 in data set [7].
Consider `Cc1cc2c(cc1C)-c1oc(CN3CCN4CCCCC4C3)c(C)c1C(=O)C2=O` (stereo not given), for which the Activity in [1] amounted to 1030 µmol/min. The half-inhibitory concentration (IC50) in the data set with A549 [2] came to 4.5 µM; in the data set with L02 it was 31.6 µM. Further, the “Ratio IC50” value in data set [3] was found to be 7.02.
For the molecule `CCN1CCN(Cc2oc3c(c2C)C(=O)C(=O)c2cc(C)c(C)cc2-3)CC1`, the Activity in [1] is 1200 µmol/min. The IC50 turned out to be 2.9 µM with A549 [2] and 35.8 µM with L02. The figures for the solubility at 8 h in data set [8] and in data set [9] were 82 µg/mL (≈ 224 µM) and greater than 1000 µg/mL, respectively. In data set [10], this molecule displayed a logD of 1.99. Further, in data set [3], the “Ratio IC50” value is listed as 12.36.
Take `Cc1cc2c(cc1C)-c1oc(CN3CCOCC3)c(C)c1C(=O)C2=O`: in [1], the Activity is 996 µmol/min. The 50% inhibitory concentration (IC50) with A549 [2] worked out at 4.9 µM; in the data set with L02 it was 28.5 µM. For the same molecule, the “Ratio IC50” value in [3] worked out at 5.81.
Turning to `Cc1cc2c(cc1C)-c1oc(CN3CCC(N4CCCCC4)CC3)c(C)c1C(=O)C2=O`, the Activity in data set [1] is 795 µmol/min. In addition, the IC50 in the data set with A549 [2] amounted to 9.1 µM; in the data set on L02, 40.5 µM. Also, in data set [3], the “Ratio IC50” value is on record as 4.45.
For `Cc1cc2c(cc1C)-c1occ(C)c1C(=O)C2=O`, the Activity in data set [1] came out at 690 µmol/min. Moreover, the 50% inhibitory concentration (IC50) with A549 [2] is 7.4 µM; with L02, 31.4 µM. In data set [3], the “Ratio IC50” value was 4.24.
For the molecule `Cc1cc2c(cc1C)-c1oc(CN3CCC(N4CCN(C)CC4)CC3)c(C)c1C(=O)C2=O`, the Activity in data set [1] is 904 µmol/min. In addition, the IC50 with A549 [2] was 6.8 µM; in the data set on L02, 29.8 µM. Moreover, the “Ratio IC50” value in data set [3] is reported as 4.38.
With `Cc1cc2c(cc1C)-c1oc(CN3CCCCC3)c(C)c1C(=O)C2=O`, the Activity in data set [1] stood at 768 µmol/min. Moreover, the IC50 turned out to be 12 µM in the data set with A549 [2] and 45.5 µM in the data set with L02. Also, the “Ratio IC50” value in data set [3] came out at 3.79.
As for `Cc1cc2c(cc1C)-c1oc(CN3CCN(C)CC3)c(C)c1C(=O)C2=O`, the Activity in data set [1] turned out to be 1260 µmol/min. Moreover, the IC50 in the data set with A549 [2] turned out to be 2.4 µM; in the data set on L02, 36.2 µM; in the data set on A549/TR it was 4.5 µM; in the data set on A549 [4] it was 4.8 µM; in the data set with NCI-H596, 27 µM; in the data set with A549 [5] it was 30 µM. For the same molecule, the outcome (with A549 [11]; in the data set with A549 [12]; with A549 [14]; in data set [16]) was Active. The solubility at 8 h in data set [8] was 110 µg/mL (≈ 312 µM); in data set [9], greater than 1000 µg/mL. For the same molecule, the logD in [10] was found to be 1.97. In addition, the “Ratio IC50” value in data set [3] is 15.06; in data set [6] it was 11; in data set [7], greater than 12.5. The result (in the data set with A549 [13]; in the data set with A549 [15]; in data set [17]) was inactive.
For the molecule `Cc1cc2c(cc1C)-c1oc(CN3CCN(S(C)(=O)=O)CC3)c(C)c1C(=O)C2=O`, the Activity in [1] is 871 µmol/min. The IC50 in the data set with A549 [2] was 7.2 µM; in the data set with L02, 31.2 µM. Also, in [3], the “Ratio IC50” value turned out to be 4.33.
For `Cc1cc2c(cc1C)-c1oc(CN3CCN(C4CC4)CC3)c(C)c1C(=O)C2=O`, the Activity in [1] was found to be 1100 µmol/min. Besides, the results for the IC50 in the data set with A549 [2] and in the data set on L02 were 3.9 µM and 34.6 µM, respectively. In addition, the “Ratio IC50” value in data set [3] turned out to be 8.86.
Turning to `Cc1cc2c(cc1C)-c1oc(CN3CCC(N4CCCC4)CC3)c(C)c1C(=O)C2=O`, the Activity in data set [1] came to 848 µmol/min. In addition, the IC50 in the data set on A549 [2] turned out to be 8.7 µM; in the data set on L02, 31.2 µM. The “Ratio IC50” value in [3] came out at 3.58.
On to `Cc1cc2c(cc1C)-c1oc(CN3CCC(N4CCOCC4)CC3)c(C)c1C(=O)C2=O`, for which, in [1], the Activity stood at 951 µmol/min. Moreover, the IC50 in the data set with A549 [2] was 5.6 µM; in the data set with L02, 28.9 µM. In data set [3], the “Ratio IC50” value was determined as 5.16.
Take `Cc1cc2c(cc1C)-c1oc(CN3CCN(CCO)CC3)c(C)c1C(=O)C2=O`: in [1], the Activity was determined as 1160 µmol/min. The IC50 in the data set on A549 [2] came to 3.1 µM; in the data set with L02 it was 35.8 µM. Also, the solubility at 8 h in data set [8] was 61 µg/mL (≈ 159 µM); in data set [9], greater than 1000 µg/mL. Further, the logD in data set [10] turned out to be 2.01. Further, in data set [3], the “Ratio IC50” value stood at 11.56.
